We go through nine molecules from US20060270634A1, “Acetal phosphate-derived LPA mimics, PPARgamma activators, and autotaxin inhibitors” (priority 2005, published 2006).

One experiment deals with T1, PPARγ (Homo sapiens, UniProt P37231).
T1 construct: expressed in transfected cells; host or cells: CV1 cells (African green monkey kidney)
T1 sequence (P37231 1-505): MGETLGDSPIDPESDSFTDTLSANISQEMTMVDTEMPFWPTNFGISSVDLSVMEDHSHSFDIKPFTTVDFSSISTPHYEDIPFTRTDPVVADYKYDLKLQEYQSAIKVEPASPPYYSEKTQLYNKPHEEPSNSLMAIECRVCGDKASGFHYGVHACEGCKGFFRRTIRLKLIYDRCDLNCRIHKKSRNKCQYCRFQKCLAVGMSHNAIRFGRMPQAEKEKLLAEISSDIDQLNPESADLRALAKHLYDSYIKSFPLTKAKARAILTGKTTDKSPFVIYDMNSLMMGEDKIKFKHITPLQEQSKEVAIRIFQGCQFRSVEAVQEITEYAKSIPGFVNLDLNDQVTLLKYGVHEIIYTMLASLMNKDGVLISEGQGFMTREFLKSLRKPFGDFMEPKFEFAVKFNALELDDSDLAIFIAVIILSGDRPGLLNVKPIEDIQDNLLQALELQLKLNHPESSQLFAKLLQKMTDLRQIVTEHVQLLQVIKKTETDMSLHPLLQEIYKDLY
Kind of experiment: PPARγ activation, PPRE-Acox-Rluc reporter gene assay in CV1 cells. In kind it is cell-based. To be noted: for PPARγ: Table 3; for PPARγ activation in words: FIG. 9: 10 μM, 20 h. As for the experimental part: (§1) The biological effects of all synthesized compounds were testing using three high-throughput assays. First, intracellular calcium transients in rat hepatoma (RH777, an LPA receptor null cell) cell lines individually expressing either LPA1, LPA2, and LPA3 receptors were analyzed to evaluate compounds as agonists or antagonists. […] The PPRE-Acox-Rluc construct contains a renilla luciferase coding region, an acyl-CoA oxidase coding region, and a PPAR response element coding region. Third, inhibition of the lysophospholipase D autotoxin was determined using a previously described procedure.
PPARγ is a lipid-activated transcription factor that belongs to the nuclear hormone superfamily. The inventors examined the activity of all synthesized Darmstoff analogs as PPARγ activators in vitro in CV1 cells using a PPRE-Acox-Rluc reporter gene assay. Rosiglitazone, a known PPARγ agonist, was used as a positive control for comparison.
RH7777 cells, which lack LPA GPCR, were stably transfected with individual LPA1, LPA2 and LPA3 receptors and used for the in vitro screening.
Unlike the enantiospecific responses compounds at LPA GPCR by APA analogs, there was no stereoselectivity observed in PPARγ activation by these analogs.
(A reporter such as luciferase makes a cellular process visible.)

The target in experiment [1] is lysophospholipase D (autotaxin, ATX) (Homo sapiens, UniProt Q13822). Kind of experiment: Inhibition of lysophospholipase D autotaxin. Format: biochemical. The settings on record: Table 3. As for the experimental part: as §1
LPA is liberated as the product of lysophosphatidylcholine hyrolysis by the lysophospholipase D, autotaxin (ATX). The inventors screened Darmstoff analogs for ATX inhibition. As indicated by the data, all tested analogs are capable of ATX inhibition independently of their ligand properties at LPA GPCR and PPARγ.

The target in another experiment is LPA2 (Homo sapiens, UniProt Q9HBW0). Kind of experiment: Ca2+ transients in RH7777 cells expressing LPA2 (agonist / inhibition of LPA response). To be noted: for LPA2 effect in words: *transient.
Sequence of LPA2 (Q9HBW0 whole entry, species assumed): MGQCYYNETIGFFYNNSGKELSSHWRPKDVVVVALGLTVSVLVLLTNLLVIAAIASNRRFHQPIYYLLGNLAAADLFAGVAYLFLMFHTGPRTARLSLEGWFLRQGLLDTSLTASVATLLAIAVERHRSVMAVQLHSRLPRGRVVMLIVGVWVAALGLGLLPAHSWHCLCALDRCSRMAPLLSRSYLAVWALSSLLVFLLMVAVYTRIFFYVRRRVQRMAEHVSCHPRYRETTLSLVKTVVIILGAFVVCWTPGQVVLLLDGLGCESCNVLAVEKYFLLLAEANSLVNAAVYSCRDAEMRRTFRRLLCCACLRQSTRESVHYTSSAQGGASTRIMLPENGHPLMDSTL
A further experiment concerns the target T2, LPA3 (Homo sapiens, UniProt Q9UBY5).
T2 sequence (Q9UBY5 1-353): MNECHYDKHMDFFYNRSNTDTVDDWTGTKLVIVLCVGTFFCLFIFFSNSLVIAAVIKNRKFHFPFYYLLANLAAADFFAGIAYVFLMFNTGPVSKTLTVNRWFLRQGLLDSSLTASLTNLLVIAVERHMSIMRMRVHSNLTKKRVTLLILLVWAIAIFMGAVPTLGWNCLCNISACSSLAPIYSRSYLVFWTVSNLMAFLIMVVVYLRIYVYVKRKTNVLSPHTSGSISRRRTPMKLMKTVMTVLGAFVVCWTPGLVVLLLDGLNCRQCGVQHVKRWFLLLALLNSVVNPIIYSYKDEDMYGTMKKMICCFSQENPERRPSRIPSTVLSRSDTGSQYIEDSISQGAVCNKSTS
Nature of the experiment: Ca2+ transients in RH7777 cells expressing LPA3 (agonist / inhibition of LPA response). The settings on record: for Ki: read-out: LPA3 (Ki); for EC50: read-out: LPA3 EC50; for IC50: read-out: LPA3 IC50; for LPA3 effect in words: Tables 2, 4, 6.

In another experiment the test system is PC3 cells. Kind of experiment: Calcium mobilization response in PC3 cells. In kind it is cell-based.
The target in another experiment is LPA1 (Homo sapiens, UniProt Q92633). Nature of the experiment: Ca2+ transients in RH7777 cells expressing LPA1 (agonist / inhibition of LPA response). The settings on record: for LPA1 effect in words: Tables 2, 4, 6.
Sequence of LPA1 (Q92633 whole entry, species assumed): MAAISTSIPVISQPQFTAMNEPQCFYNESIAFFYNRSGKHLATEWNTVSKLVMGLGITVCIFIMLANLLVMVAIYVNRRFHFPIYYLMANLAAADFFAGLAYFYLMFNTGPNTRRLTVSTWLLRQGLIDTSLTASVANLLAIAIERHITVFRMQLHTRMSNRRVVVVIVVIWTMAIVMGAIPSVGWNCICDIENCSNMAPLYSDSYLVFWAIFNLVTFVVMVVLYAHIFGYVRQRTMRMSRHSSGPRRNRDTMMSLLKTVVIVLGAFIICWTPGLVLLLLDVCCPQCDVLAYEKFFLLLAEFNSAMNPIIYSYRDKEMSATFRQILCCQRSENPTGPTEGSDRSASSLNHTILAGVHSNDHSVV
[2] abbreviates: Table 3, maximal efficacy of drug/maximal efficacy of LPA 18:1.

Broadly, the IC50 is the midpoint of a concentration-inhibition curve. As a reminder, the Ki is the equilibrium dissociation constant of an inhibitor or competing ligand from its target. One may read the EC50 as the concentration giving half of the maximal effect.

Each structure is given as a SMILES string. Entries after “also recorded” stand apart in the source; their conditions may differ. Like-named read-outs stand apart in the source and are kept apart here.

Protocol for LPA1: (§2) Synthesized compounds were tested for induction and inhibition of LPA-induced calcium transients in rat hepatoma (RH7777) cell lines that stably express individual LPA1, LPA2, and LPA3 receptors as described in the literature using a FlexStation II automated fluorimeter (Molecular Devices, Sunnyvale, Calif.).
Protocol for LPA2: as §2
Protocol for LPA3: as §2

Turning to `CCCCCCCCC=CCCCCCCCC1OCC(COP(=O)([O-])O)O1.[K+]` (mixture of isomers) [Analog 13], the PPARγ result on PPARγ was “Agonist”. In experiment [1], the “ATX (% inhib.)” value was determined as 30% and the concentration for half-maximal inhibition (IC50) is 141 nM. In addition, the “LPA2 agonist/antagonist activity in words” value at LPA2 was “inhibited LPA1-3 receptors”. Further, the IC50 at LPA2 (read-out: LPA2 IC50, Table 3) is greater than 30000 nM. For the same molecule, the “LPA3 agonist/antagonist activity in words” value on LPA3 is given as “LPA1/3 antagonist activity”. Further, on LPA3 (Table 3), the inhibitory constant (Ki) is 548 nM, the concentration giving a half-maximal response (EC50) was greater than 30000 nM and the IC50 is 527 nM.
Consider `CCCCCCCC/C=C\CCCCCCCC1OCC(COP(=O)([O-])O)O1.[K+]` (stereo not shown) [Analog 13, 2-Heptadec-8-enyl-(1,3)dioxolan-4yl methyl dipotassium phosphate], for which the IC50 in the experiment on PC3 cells (Homo sapiens, PC-3, read-out: PC3 cells IC50) came out at 1500 nM; in the experiment on PC3 cells (read-out: PC3 cells IC50, listed as 18:1 Δ 9 acetal phosphate), 1040 nM; at LPA2 (RH-LPA2 cells IC50, inhibition of 200 nM LPA response) it was 460 nM; at LPA2 (RH-LPA2 cells IC50, inhibition of 300 nM LPA response), 777 nM; on LPA3 (200 nM LPA), 527 nM. Also, the “LPA2 effect in words” value on LPA2 is “full agonist”. For the same molecule, the concentration for a half-maximal effect (EC50) on LPA2 (LPA2 EC50, *transient) worked out at 68 nM.
For `CCCCCCCC/C=C\CCCCCCCC1OCC(COP([O-])(O)=S)O1.[K+]` (stereo not shown) [Analog 14, 2-Heptadec-8-enyl-(1,3)dioxolan-4yl methyldipotassium thiophosphate], the concentration for a half-maximal effect (EC50) is 1370 nM with PC3 cells (Homo sapiens, PC-3, compound alone); 981 nM at LPA1 (LPA1 EC50); 2170 nM on LPA1 (RH-LPA1 cells EC50, compound alone); 34 nM at LPA2 (LPA2 EC50, *transient); 639 nM on LPA2 (RH-LPA2 cells EC50, compound alone); 639 nM on LPA3. For the same molecule, the Emax in the experiment on PC3 cells (Homo sapiens, PC-3, of the LPA-alone max. response, read-out: PC3 cells maximal response) was roughly 86%; on LPA1 (RH7777, read-out: RH-LPA1 cells maximal response), roughly 50%; on LPA2 (RH7777, read-out: RH-LPA2 cells maximal response), roughly 74%. Moreover, in the experiment with PC3 cells (compound alone), the “PC3 cells effect of compound alone” value is listed as “stimulatory effect. Its maximal”. The “LPA1 effect in words” value at LPA1 is on record as “Partial agonist”. In addition, the “RH-LPA1 cells effect of compound alone” value at LPA1 (compound alone) is listed as “stimulatory effect. Its maximal”. The “LPA2 effect in words” value at LPA2 is given as “almost full agonist”. Moreover, on LPA2 (compound alone), the “RH-LPA2 cells effect of compound alone” value is listed as “stimulatory effect. Its maximal”. The “LPA3 effect in words” value on LPA3 was “Partial agonist”.
Regarding `CCCCCCCCC=CCCCCCCCC1OCC(COP(=O)([O-])O)O1.[K+]` (stereo not shown) [Analog 37], the PPARγ result at PPARγ was “Agonist”. Moreover, in experiment [1], the “ATX (% inhib.)” value amounted to 46% and the IC50 amounted to 238 nM. Moreover, the EC50 at LPA2 (read-out: LPA2 EC50, Table 3) is greater than 10000 nM. Further, at LPA2 (read-out: LPA2 IC50, Table 3), the IC50 is greater than 30000 nM. Also, the “LPA3 agonist/antagonist activity in words” value on LPA3 was “LPA3 antagonists”. At LPA3 (Table 3), the Ki came out at 241 nM, the EC50 was greater than 30000 nM and the half-maximal inhibitory concentration (IC50) is 484 nM.
As to `CCCCCCCCC=CCCCCCCCC1OCC(COP([O-])(O)=S)O1.[K+]` (stereo not shown) [Analog 38], at PPARγ, the PPARγ result is “Agonist”. The “ATX (% inhib.)” value in experiment [1] is 64%. The IC50 in experiment [1] was 363 nM; at LPA1 (read-out: LPA1 IC50, Table 3), greater than 30000 nM; on LPA2 (read-out: LPA2 IC50, Table 3) it was greater than 30000 nM; on LPA3 (Table 3), greater than 30000 nM. Moreover, the “LPA1 agonist/antagonist activity in words” value at LPA1 is on record as “pan-agonists”. Besides, the “LPA1 (Emax)” value at LPA1 (setting [2]) came out at 68%. The concentration for a half-maximal effect (EC50) turned out to be 2260 nM at LPA1 (read-out: LPA1 EC50, Table 3); 1540 nM at LPA2 (read-out: LPA2 EC50, Table 3); 204 nM at LPA3 (Table 3). On LPA2, the “LPA2 agonist/antagonist activity in words” value is recorded as “pan-agonists”. Moreover, the “LPA2 (Emax)” value at LPA2 (setting [2]) amounted to 72%. Further, on LPA3, the “LPA3 agonist/antagonist activity in words” value is reported as “full agonists”. In addition, at LPA3 (setting [2]), the “LPA3 (Emax)” value came out at 102%.
For the molecule `CCCCCCCCOC[C@H](COP(O)(O)=S)OCCCCCCCC` [Cpd 13b, 2(R)-ATPA 8:0], at LPA1, the “LPA1 agonist/antagonist activity in words” value is “agonists; also recorded: Enantiospecific activation”. Further, the Emax at LPA1 (RH7777, read-out: LPA1 (Emax)) came out at 30%; on LPA2 (RH7777, read-out: LPA2 (Emax)), 27%; at LPA3 (RH7777, read-out: LPA3 (Emax)), 109%; on LPA3 (RH7777, read-out: LPA3 Emax) it was 109%. Moreover, the “LPA1 effect in words” value on LPA1 is given as “Partial agonist”. For the same molecule, the EC50 on LPA1 (read-out: LPA1 EC50) came to 695 nM; on LPA1 (read-out: LPA1 EC50, Table 5, PA 8:0 analogs), 695 nM; on LPA2 (LPA2 EC50, *transient), 1020 nM; on LPA3, 3 nM; at LPA3 (Table 5), 3 nM; on LPA3 (text), 3 nM. Moreover, at LPA2, the “LPA2 agonist/antagonist activity in words” value is “weak and partial agonist”. Further, the “LPA2 effect in words” value at LPA2 is on record as “Partial agonist”. Besides, the “LPA3 agonist/antagonist activity in words” value on LPA3 was “agonists; also recorded: potent LPA3 receptor subtype-selective agonist; also recorded: full agonist”. The “selectivity for LPA3 over LPA1” value on LPA3 is roughly 230 fold. For the same molecule, the “selectivity for LPA3 over LPA2” value at LPA3 was roughly 1900 fold. The “LPA3 effect in words” value at LPA3 is “Full agonist”.
On to `CCCCCCCCNC(=O)[C@H](COP(=O)(O)O)NC(=O)CCCCCCC` [Cpd 19a], for which the “PPARγ activation in words” value on PPARγ is recorded as “agonist of PPARγ”. Further, the “LPA1 agonist/antagonist activity in words” value on LPA1 is recorded as “no effect”. Moreover, at LPA2, the “LPA2 agonist/antagonist activity in words” value is “no effect”. Also, the “LPA3 agonist/antagonist activity in words” value at LPA3 is reported as “selective LPA3 antagonist”. In addition, at LPA3 (Table 5), the Ki is 196 nM and the IC50 amounted to 414 nM.
For `CCCCCCCCNC(=O)[C@@H](COP(=O)(O)O)NC(=O)CCCCCCC` [Cpd 19b], at PPARγ, the “PPARγ activation in words” value is “no effect”. The “LPA1 agonist/antagonist activity in words” value at LPA1 is reported as “no effect”. The “LPA2 agonist/antagonist activity in words” value on LPA2 is “no effect”. Further, on LPA3, the “LPA3 agonist/antagonist activity in words” value is “true LPA3 receptor specific antagonist”. Also, on LPA3 (Table 5), the Ki is 489 nM and the IC50 turned out to be 935 nM.
Take `CCCCCCCC/C=C\CCCCCCCC(=O)OC[C@@H](O)COP(=O)(O)O` [Oleoyl-LPA, reference compound]: the “LPA1 agonist/antagonist activity in words” value on LPA1 is reported as “agonist of LPA1-3”. At LPA2, the “LPA2 agonist/antagonist activity in words” value is given as “agonist of LPA1-3”. For the same molecule, on LPA3, the “LPA3 agonist/antagonist activity in words” value is “agonist of LPA1-3”.
